“Also recorded” adds a separate entry of the source. Like-named read-outs stand apart in the source and are kept apart here. Values belong to the compound of their own block, whether it stands above or below them.
Legend:
[1] = Study of polymorphic forms of Compound A stirred in water (XRPD); format: physicochemical; conditions: 300 rpm
Experimental: 600 mg Compound A was placed in a 100 mL container. After 40 mL water was added, the container was stirred at 300 rpm at 20° C. After 12 hours, a sample was taken from the container and an XRPD was measured. […] The XRPD, TG, and DSC of Form E are shown in FIGS. 12, 13, and 14, respectively.
600 mg Compound A was placed in a 100 mL container. After 40 mL water was added, the container was stirred at 300 rpm at 25° C. After 48 hours, a sample was taken from the container and an XRPD was measured. […] A sample taken after 168 hours at 25° C. still had the same XRPD as the Form E polymorph described in Chinese Patent No. 1871003.
600 mg Compound A was placed in a 100 mL container. After 40 mL water was added, the container was stirred at 300 rpm at 15° C. After 10 hours, a sample was taken from the container and an XRPD was measured.

[2] = Powder dissolution study in water; format: physicochemical; conditions: 500 mg in 500 mL water, 50 rpm, up to 300 min
Experimental: Samples (2 mL) were collected at 1 min, 2 min, 5 min, 10 min, 15 min, 20 min, 30 min, 40 min, 50 min, 60 min, 80 min, 100 min, 120 min, 150 min, 180 min, 210 min, 240 min, 270 min, and 300 min. Water (2 mL) was added each time when a sample was taken. The XRPD of the solid samples were measured.

[3] = comparison polymorphs, cited from earlier work
[4] = comparison polymorphs, cited from earlier work; remark: listed apart in the source
[5] = cited from earlier work; for Hygroscopicity: Wt. increase: 5~95% RH
[6] = in acetone; comparison polymorphs; listed as B; cited from earlier work
[7] = cited from earlier work
[8] = Thermal stability (polymorph conversion on heating, XRPD); format: physicochemical
Experimental: In one embodiment, Form DH converts to a different polymorph at an elevated temperature (e.g., 170° C. or higher). In one embodiment, when heated to 170° C., Form DH converts to a polymorph characterized by an XRPD pattern substantially similar to that set forth in FIG. 10 (“Form F”). In one embodiment, when heated to 190° C., Form DH converts to a polymorph characterized by an XRPD pattern substantially similar to that set forth in FIG. 11 (“Form A”).
In one embodiment, Form α converts to a different polymorph at an elevated temperature (e.g., 230° C. or higher). In one embodiment, when heated to 230° C., Form α converts to a polymorph characterized by an XRPD pattern substantially similar to that set forth in FIG. 26 (“Form A”).

[9] = Hygroscopicity, dynamic vapor sorption (DVS); format: physicochemical; conditions: 25° C., 1~95% RH
Experimental: About 3 mg Form DH prepared in Example 1 was subject to dynamic vapor sorption analysis with a VTI-SA+ type dynamic vapor sorption analyzer (US TA Instruments Company). The temperature was 25° C., and the range of the relative humidity was 1-95%.
About 3 mg Form α prepared in Example 4 was subject to Dynamic Vapor Sorption analysis with a VTI-SA+ type dynamic vapor sorption analyzer (US TA Instruments Company). The temperature was 25° C., and the range of the relative humidity was 1-95%.

[10] = Stability of polymorphs in solution (suspension in solvent, XRPD of the solid); format: physicochemical; conditions: for Stability in solution: polymorph converted (Cv.) to: suspension kept at 20° C. for 24 hours; for Stability in solution: polymorphic form: ethanol, acetonitrile, tetrahydrofuran, ethyl acetate, and dioxane, 20° C. for 24 hours
Experimental: (§1) 15 mg of the polymorph obtained in Example 1 was placed in a 2 mL container. 1 mL of the each of the following solvents was added: methanol, ethanol, acetone, acetonitrile, tetrahydrofuran, nitromethane, ethyl acetate, or dioxane. The container was sonicated to dissolve Compound A. The resulting supersaturated suspension was kept at 20° C. for 24 hours. After centrifugation, the supernatant was removed, and the solid was dried at 45° C. for 2 hours. The XRPD of the solid was measured.
as §1, with “Example 4” for “Example 1”, “tetrahydrofuran,” for “tetrahydrofuran, nitromethane,”, “acetate, dioxane,” for “acetate,”, “or water.” for “or dioxane.”

[11] = Accelerated stability studies (storage, XRPD)
Experimental: 10 mg of Form DH or Form α of the present application was each put in a testing tube. The testing tubes were placed separately in sealed storage bags. The bags were stored under 40° C./75% RH or RT/P2O5. Samples of the polymorph were collected at day 1, day 3, day 5, day 7, day 14, day 21, and day 28 for XRPD measurement.

[12] = Crystallinity of polymorphs; format: physicochemical; conditions: polymorphs of the application
Experimental: XRPD patterns of the polymorphs obtained in the Examples were collected on a D/MAX 2500 diffractometer using the following setting: Cu Kα radiation λ 1.5418 Å, 40 kV, 200 mA, […] 2-40° at 8°/min.

Polymorphic form by XRPD after stirring in water ([1]; 15° C., 34 hours): Form DH | Polymorphic form by XRPD after stirring in water ([1]; 15° C., after 10 hours): Form E | Polymorphic form by XRPD after stirring in water ([1]; 20° C., 108 hours): Form DH | Polymorphic form by XRPD after stirring in water ([1]; 20° C., after 12 hours): Form E | Polymorphic form by XRPD after stirring in water ([1]; 25° C., after 48 hours): Form E | Polymorphic form by XRPD after stirring in water ([1]; 25° C., after 168 hours): Form E | Dissolution: crystal conversion (Cv.) during powder dissolution [2]: Form E
SMILES: Nc1cccc2c1CN(C1CCC(=O)NC1=O)C2=O (centres unmarked) [Compound A, 3-(4-amino-1-oxoisoindolin-2-yl)piperidine-2,6-dione]
Crystallinity [3]: Good | Thermal stability ([4]; temperature not given): No Cv. | Hygroscopicity: Wt. increase [5]: No significant

SMILES: Nc1cccc2c1CN(C1CCC(=O)NC1=O)C2=O (centres unmarked) [Form B, 3-(4-amino-1-oxoisoindolin-2-yl)piperidine-2,6-dione]
Stability in solution: polymorph converted (Cv.) to [6]: THF, to Form C | Accelerated stability ([7]; 85 days at 40° C./93% RH): Stable for 85 | Accelerated stability ([7]; 85 days at RT/0% RH): Stable for 85 | Crystallinity ([3]; listed as B): Good | Thermal stability: polymorph converted (Cv.) to ([4]; at 175° C.): Cv. to Form A at | Hygroscopicity: Wt. increase [5]: No significant

SMILES: Nc1cccc2c1CN(C1CCC(=O)NC1=O)C2=O (centres unmarked) [Form C, 3-(4-amino-1-oxoisoindolin-2-yl)piperidine-2,6-dione]
Crystallinity ([3]; listed as C): Good | Hygroscopicity: Wt. loss ([5]; at 95% RH): by 6.03% at

SMILES: Nc1cccc2c1CN(C1CCC(=O)NC1=O)C2=O (centres unmarked) [Form D, 3-(4-amino-1-oxoisoindolin-2-yl)piperidine-2,6-dione]
Crystallinity ([3]; listed as D): Good

Thermal stability: polymorph converted (Cv.) to ([8]; heated to 170° C.): Form F | Thermal stability: polymorph converted (Cv.) to ([8]; heated to 190° C.): Form A | Hygroscopicity: Wt. increase [9]: No weight increase | Hygroscopicity: crystal form after DVS [9]: remained unchanged | Hygroscopicity: Wt. increase ([9]; listed as DH): No significant | Hygroscopicity: crystal form after DVS ([9]; listed as DH): No change | Stability in solution: polymorph converted (Cv.) to ([10]; in acetone): Form C | Stability in solution: polymorph converted (Cv.) to ([10]; in acetone, listed as DH): Form C in | Dissolution: crystal conversion (Cv.) during powder dissolution [2]: did not change | Accelerated stability (stable, or polymorph converted to) ([11]; 28 days at 40° C./75% RH): stable | Accelerated stability (stable, or polymorph converted to) ([11]; 28 days at 40° C./75% RH, listed as DH): Stable | Crystallinity [12]: Good
SMILES: Nc1cccc2c1CN(C1CCC(=O)NC1=O)C2=O (centres unmarked) [Form DH, 3-(4-amino-1-oxoisoindolin-2-yl)piperidine-2,6-dione]
Stability in solution: polymorphic form ([10]; in water, methanol): maintained its polymorphic form as Form DH; also recorded: stable

SMILES: Nc1cccc2c1CN(C1CCC(=O)NC1=O)C2=O (centres unmarked) [Form E, 3-(4-amino-1-oxoisoindolin-2-yl)piperidine-2,6-dione]
Crystallinity ([3]; listed as E): Good

SMILES: Nc1cccc2c1CN(C1CCC(=O)NC1=O)C2=O (centres unmarked) [Form H, 3-(4-amino-1-oxoisoindolin-2-yl)piperidine-2,6-dione]
Crystallinity [3]: relatively poor

Thermal stability: polymorph converted (Cv.) to ([8]; heated to 230° C.): Form A | Hygroscopicity: crystal form after DVS [9]: remained unchanged | Hygroscopicity: Wt. increase ([9]; listed as α): No significant | Hygroscopicity: crystal form after DVS ([9]; listed as α): No change | Stability in solution: polymorph converted (Cv.) to ([10]; in water): Form DH | Dissolution: crystal conversion (Cv.) during powder dissolution [2]: Form E | Accelerated stability (stable, or polymorph converted to) ([11]; 28 days at RT/P2O5): did not change | Accelerated stability (stable, or polymorph converted to) ([11]; 28 days at RT/P2O5, listed as α): Stable after | Crystallinity [12]: Good
SMILES: Nc1cccc2c1CN(C1CCC(=O)NC1=O)C2=O (stereo not drawn) [Form α, 3-(4-amino-1-oxoisoindolin-2-yl)piperidine-2,6-dione]
Stability in solution: polymorphic form ([10]; in methanol, acetone): stable; also recorded: maintained its polymorphic form as Form α
